# Earlier results as cited in US11903918B2, “Fumarate ester dosage forms with enhanced gastrointestinal tolerability” (BANNER LIFE SCIENCES LLC, priority 2020, dated 2024).
# Where a name gives a salt, the structure may show the parent alone.
# Experiments:
# [1] = system: nuclear factor erythroid-derived 2-like (Nrf2) pathway; conditions: in vitro and in vivo in humans
compound,measurement,setting,value
"COC(=O)/C=C/C(=O)OC [dimethyl fumarate, dimethyl (E) butenedioate]",activation of the Nrf2 pathway,[1],activate
same,solubility in water,,highly soluble in water
